Here are results for four compounds from patent EP0427518B1, “NMDA-Blocking compounds, pharmaceutical compositions, their preparation and use” (priority 1989, dated 1991).

The conditions of assay [1]: more active than Δ-1-tetrahydrocannabionol; cited from earlier work.
Assay [2] concerns C-57 Black mice. In words: Inhibition of tremorogenic, convulsive and lethal effects of NMDA in C-57 Black mice. Format: in vivo. Particulars: for mice in which the tremorogenic, convulsive and lethal effects were prevented: dose 5 mk/kg, NMDA 100 mg/kg; for blockade of NMDA-induced tremor, seizure and lethality: at about 2.5 mg/kg body weight, summary statement, mouse strain not given. As for the experimental part:
Sabra mice (an Israeli heterogenous strain) were pretreated with either vehicle alone (control) or HU-211 (1.25 or 2.50 mg/kg; s.c.), followed by NMDA (200 mg/kg; s.c.). […] Similar experiments were performed using C-57 Black mice, in which the dose of NMDA was decreased (100 mg/kg; s.c.). Counteraction by HU-211 of the NMDA-induced effects was more pronounced in the latter strain (which is more sensitive than Sabra mice to the effects of NMDA). In the control series of both strains, which received NMDA without HU-211, all animals died in less than 10 min. following seizure onset.
The experiments described in Table 2 were repeated with C-57 Black mice, HU-211 replaced by the compound of formula (II) (compound Vb, U.S. Patent No. 4,179,517) and the compound of formula (IIa)(compound XIb, ibid.). NMDA (100 mg/kg) was administered to the mice.
In addition, the experiments were repeated with the novel compound HU-247.

In assay [3] the test system is Sabra mice. The experiment in a line: Induction of stereotypy (stereotypy gradient of Feigenbaum et al.). It is filed as in vivo. Particulars: at about 25 mg/kg body weight; summary statement covering stereotypy, locomotor and heart rate tests; mice. From the text:
As will be shown hereafter, the pharmacological profile of HU-211, and other compounds constituting the active ingredients of the present compositions, includes the induction of stereotypy, locomotor hyper-activity and tachycardia in mice (Table 1). […] This possibility was explored by examining the activity of the compounds in protecting against the tremorogenic, convulsive and lethal effects of NMDA and NMDA agonists in mice. Such effects are counteracted by virtually all NMDA antagonists.

With `CCCCCCC(C)(C)c1cc(O)c2c(c1)OC(C)(C)[C@@H]1CC=C(CO)C[C@@H]21` [HU-210, 7-hydroxy-Δ⁶-tetrahydrocannabionol 1,1-dimethylheptyl homolog, reference compound], the “cannabimimetic activity relative to Δ-1-tetrahydrocannabionol” value in assay [1] is roughly 100 times.
Consider `CCCCCCC(C)(C)c1cc(OC(C)=O)c2c(c1)OC(C)(C)[C@H]1CC=C(CO)C[C@H]21` [HU-247], for which the “mice in which the tremorogenic, convulsive and lethal effects of NMDA were fully prevented” value in assay [2] (C-57 Black mice, dose 2.5 mg/kg, same conditions as Table 2) is given as 6 out of 7.
For `CCCCCCC(C)(C)c1cc(O)c2c(c1)OC(C)(C)[C@H]1CC=C(C)C[C@H]21` [II], in assay [2] (C-57 Black mice), the “mice in which the tremorogenic, convulsive and lethal effects were prevented” value was 4 out of 6. Besides, in assay [2], the “blockade of NMDA-induced tremor, seizure and lethality” value is “potent blockers”. In assay [3], the “induction of stereotypy, locomotor hyperactivity and tachycardia” value was “induce stereotypy, locomotor hyperactivity and tachycardia”.
Turning to `CCCCCCC(C)(C)c1cc(O)c2c(c1)OC(C)(C)[C@H]1CCC(C)=C[C@H]21` [IIa], the “mice in which the tremorogenic, convulsive and lethal effects were prevented” value in assay [2] (C-57 Black mice) is reported as 4 out of 6. In addition, the “blockade of NMDA-induced tremor, seizure and lethality” value in assay [2] is “potent blockers”. Further, the “induction of stereotypy, locomotor hyperactivity and tachycardia” value in assay [3] was “induce stereotypy, locomotor hyperactivity and tachycardia”.
